≈ marks a conversion by molar mass, not a printed value. Where “and” joins values, the source holds several entries; their conditions need not be identical. Equal values may be shown once. Entries after “also recorded” stand apart in the source; their conditions may differ.
Key:
[1] = system: activity-regulated Gln/MeAIB transport (SNAT activity) in hippocampal neurons; details: cited from earlier work; for block of 14C-MeAIB transport activity: 2 mM
[2] = system: activity-regulated Gln/MeAIB transport (SNAT activity) in hippocampal neurons; assay: Activity-regulated (spontaneous, 4-AP- or K+-stimulated) [14C]-MeAIB transport in primary hippocampal neurons; format: cell-based, rat; parameters: block of transport activity: dose or concentration left out as unconfirmed; details: for relative affinity for PMA-induced K+-activity-stimulated Gln/MeAIB transport activity: PMA 10 min before KCl 60 mM; for inhibition at 10 µM / IC50: Rattus norvegicus, Hippocampal neuron; for inhibition at 10 µM: read-out: block / inhibition of transport activity; for inhibition of spontaneous activity-regulated 14C-MeAIB transport, in words: screens, 10 μM, GABA 2 mM; for potency to inhibit activity-regulated MeAIB transport relative to a comparator, in words: spontaneous and 4-AP stimulated transport; for Active (annotation beside the compound name: active vs inactive derivatives): Table 1: SKA-41, and active and inactive derivatives; for IC50: hippocampal neurons in vitro, 14C-MeAIB 20 μM, read-out: IC50 to inhibit activity-regulated Gln/MeAIB transport
[3] = Max. solubility (Table 1); format: physicochemical
[4] = system: hippocampal neurons of KA-treated rats; assay: KA-induced status epilepticus model, hippocampal neurodegeneration (fluoro-jade B, NeuN); format: in vivo, rat; details: for neuroprotection against Glu-induced excitotoxicity in the KA model of TLE: rat, in vivo
From the text: (§1) In Aim 3, we treat male and female rats with the ‘best’ SKA-41 derivatives before and after injection of kainic acid (KA). The KA-induced status epilepticus (SE) model is a well-validated model of temporal lobe epilepsy (TLE), the major form of human epilepsy. The model allows studying the different stages between SE and the development of TLE including SE, the acute and latent stages of epileptogenesis and chronic epilepsy. The excitotoxin KA causes excessive Glu release in the hippocampus and selective destruction of inhibitory SOM interneurons in the hilus region of the dentate gyrus (DG) and loss of pyramidal neurons in the CA3 (esp), and also CA1 regions. We scaled up synthesis of SKA-41, 219, and SKA-378. The identity of the compounds was confirmed by ^1H- and ^13C-NMR and high-resolution mass spectrometry. Compound purity is determined by HPLC and no compounds with less then 98% purity were used. […] Rats were processed for immunohistochemistry 3 days after KA administration. As expected, we find that KA treatment induces significant neural damage (green cells) in the CA3 pyramidal neuron subfield and in neurons in the hilus (FIG. 20 Panel A), which are SOM containing GABAergic interneurons (not shown). Fluoro jade B is a high affinity fluorescent marker used for the localization of neuronal degeneration. […] In studies, we have also administered SKA-378 (30 mg/kg) one hr after the onset of stage IV seizures (SE), followed by another injection at 4 hr post SE and then once each day for 3 days. We find that SKA-378 is also neuroprotective under these conditions.
as §1, with “with” for “with the ‘best’”, “(esp)” for “(esp),”, “were” for “was”, “We” for “As expected, we”, “23” for “20”, “Fluoro-jade” for “Fluoro jade”

NaV1.2 = biological target: T1, NaV1.2 (Mus musculus, UniProt B1AWN6); assay: NaV currents recorded by whole-cell patch clamp from N1E-115 neuroblastoma cells expressing NaV1.2; format: cell-based
T1 construct: N1E-115 cells that constitutively express NaV1.2; endogenous in cells; host or cells: N1E-115 mouse neuroblastoma cells
From the text: Cells were held at −80 mV and current elicited by a 0 mV depolarization stepped from a −120 mV conditioning pulse at 0.1 Hz.
Cells transiently (or stably) expressing voltage-gated Na^+ or K^+ channels will be subjected to electrophysiological recording using the whole-cell patch-clamp technique. We will use HEK-293 cell lines stably expressing hNaV1.1, hNaV1.5, hNaV1/7, hNaV1.4, and hKV2.1. […] All cells will be voltage clamped to a holding potential of −90 mV, otherwise specified if held at −120 mV in the case of NaV1.2 use-dependence recording. Na^+ currents will be elicited by 30-ms pulse to 0 mV from −90 mV applied every 10 s. KV2.1 currents will be elicited by 200-ms voltage steps from −90 to 40 mV applied every 10 s.

T1 sequence (B1AWN6 whole entry): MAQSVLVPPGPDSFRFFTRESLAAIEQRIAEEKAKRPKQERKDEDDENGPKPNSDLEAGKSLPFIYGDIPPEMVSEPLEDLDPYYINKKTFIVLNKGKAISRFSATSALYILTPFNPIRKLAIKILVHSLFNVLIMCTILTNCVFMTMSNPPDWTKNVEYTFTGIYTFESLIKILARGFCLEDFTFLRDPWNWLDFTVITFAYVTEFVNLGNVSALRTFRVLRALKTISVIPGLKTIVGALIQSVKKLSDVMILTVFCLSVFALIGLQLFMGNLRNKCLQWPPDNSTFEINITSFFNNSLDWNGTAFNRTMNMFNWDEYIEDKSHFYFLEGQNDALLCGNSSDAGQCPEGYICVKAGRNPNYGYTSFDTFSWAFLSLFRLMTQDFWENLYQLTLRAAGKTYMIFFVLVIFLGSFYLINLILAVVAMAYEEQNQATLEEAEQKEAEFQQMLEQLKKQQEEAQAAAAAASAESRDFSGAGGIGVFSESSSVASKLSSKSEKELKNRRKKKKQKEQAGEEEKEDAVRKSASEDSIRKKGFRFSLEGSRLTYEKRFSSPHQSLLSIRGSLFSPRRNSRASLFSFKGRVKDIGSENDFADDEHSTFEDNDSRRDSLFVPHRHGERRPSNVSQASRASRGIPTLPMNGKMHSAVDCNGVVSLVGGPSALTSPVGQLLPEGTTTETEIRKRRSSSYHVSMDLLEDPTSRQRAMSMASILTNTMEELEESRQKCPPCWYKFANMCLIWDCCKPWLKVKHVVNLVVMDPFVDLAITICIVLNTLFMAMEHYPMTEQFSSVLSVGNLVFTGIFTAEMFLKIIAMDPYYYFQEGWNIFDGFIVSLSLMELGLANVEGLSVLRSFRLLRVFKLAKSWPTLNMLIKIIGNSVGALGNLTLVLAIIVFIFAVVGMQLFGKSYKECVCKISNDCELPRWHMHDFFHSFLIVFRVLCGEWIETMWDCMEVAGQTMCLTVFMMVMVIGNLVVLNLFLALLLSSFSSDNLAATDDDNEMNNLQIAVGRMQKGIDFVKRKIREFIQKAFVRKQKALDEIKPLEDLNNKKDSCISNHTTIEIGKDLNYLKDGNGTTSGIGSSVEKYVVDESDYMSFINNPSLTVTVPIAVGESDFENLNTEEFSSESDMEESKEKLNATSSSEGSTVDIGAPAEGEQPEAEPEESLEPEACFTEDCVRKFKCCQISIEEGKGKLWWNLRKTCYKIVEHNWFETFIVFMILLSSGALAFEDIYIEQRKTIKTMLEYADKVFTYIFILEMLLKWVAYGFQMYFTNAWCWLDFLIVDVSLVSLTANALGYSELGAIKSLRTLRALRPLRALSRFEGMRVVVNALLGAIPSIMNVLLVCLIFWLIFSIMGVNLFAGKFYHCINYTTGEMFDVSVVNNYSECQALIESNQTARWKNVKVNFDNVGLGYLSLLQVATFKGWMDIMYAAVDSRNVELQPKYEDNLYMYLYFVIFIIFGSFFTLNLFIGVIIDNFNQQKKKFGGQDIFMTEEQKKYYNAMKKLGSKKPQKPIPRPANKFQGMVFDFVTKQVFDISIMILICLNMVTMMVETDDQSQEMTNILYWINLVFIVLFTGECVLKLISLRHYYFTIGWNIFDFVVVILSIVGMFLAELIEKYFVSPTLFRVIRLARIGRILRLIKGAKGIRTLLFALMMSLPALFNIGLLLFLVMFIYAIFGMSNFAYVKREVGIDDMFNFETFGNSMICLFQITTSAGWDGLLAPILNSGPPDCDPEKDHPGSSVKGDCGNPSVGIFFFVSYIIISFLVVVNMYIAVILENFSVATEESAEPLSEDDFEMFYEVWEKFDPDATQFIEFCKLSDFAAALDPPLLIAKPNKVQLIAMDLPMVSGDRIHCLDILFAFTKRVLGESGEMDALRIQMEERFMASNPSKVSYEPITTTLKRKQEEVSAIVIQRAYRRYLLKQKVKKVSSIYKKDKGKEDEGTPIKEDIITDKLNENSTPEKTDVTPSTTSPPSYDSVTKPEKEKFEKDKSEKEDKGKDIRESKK

Compound: NC(=O)CC[C@H](N)C(=O)O [Gln, glutamine]
- block of 14C-MeAIB transport activity [1]: ~90%
- Km ([1]; read-out: Km of the activity-regulated Gln/MeAIB transport system): 30 µM
- relative affinity for PMA-induced K+-activity-stimulated Gln/MeAIB transport activity [2]: ~97 µM

Compound: Nc1nc(-c2ccc3ccccc3c2)cs1 [SKA-76, 4-(Naphthalen-2-yl)thiazol-2-amine]
- inhibition at 10 µM [2]: > 50%
- inhibition of spontaneous activity-regulated 14C-MeAIB transport, in words [2]: inhibited spontaneous transport activity
- potency to inhibit activity-regulated MeAIB transport relative to a comparator, in words [2]: much less potent than riluzole
- solubility [3]: 25 µM (≈ 5.66 µg/mL)

Compound: Cc1nc(-c2ccccc2)c(C)s1 [SKA-89]
- inhibition of spontaneous activity-regulated 14C-MeAIB transport, in words [2]: inactive
- solubility [3]: 100 µM (≈ 18.9 µg/mL)

Compound: Nc1nc(-c2ccsc2)cs1 [SKA-94]
- inhibition of spontaneous activity-regulated 14C-MeAIB transport, in words [2]: inactive
- solubility [3]: 100 µM (≈ 18.2 µg/mL)

Compound: Cc1ccc(-c2csc(N)n2)c2ccccc12 [SKA-190, 4-(4-Methylnaphthalen-1-yl)thiazol-2-amine]
- block of transport activity [2]: 90%
- inhibition at 10 µM [2]: 90%
- Active (annotation beside the compound name: active vs inactive derivatives) [2]: SKA-190 Active
- inhibition of spontaneous activity-regulated 14C-MeAIB transport, in words [2]: blocked spontaneous transport activity; also recorded: inhibited spontaneous transport activity
- solubility [3]: 50 µM (≈ 12 µg/mL)

Compound: Cc1ccc2cccc(-c3csc(N)n3)c2c1 [SKA-193, 4-(7-Methylnaphthalen-1-yl)thiazol-2-amine]
- block of transport activity [2]: 90%
- inhibition at 10 µM [2]: 90%
- Active (annotation beside the compound name: active vs inactive derivatives) [2]: SKA-193 Active
- inhibition of spontaneous activity-regulated 14C-MeAIB transport, in words [2]: blocked spontaneous transport activity; also recorded: inhibited spontaneous transport activity
- melting point: 154 to 156 °C
- solubility [3]: 50 µM (≈ 12 µg/mL)

Compound: Cc1ccc2cc(-c3csc(N)n3)ccc2c1 [SKA-198, 4-(6-Methylnaphthalen-2-yl)thiazol-2-amine]
- inhibition at 10 µM [2]: > 50%
- inhibition of spontaneous activity-regulated 14C-MeAIB transport, in words [2]: inhibited spontaneous transport activity
- melting point: 178 to 179 °C
- solubility [3]: 50 µM (≈ 12 µg/mL)

Compound: Nc1nc(-c2cccc3ccccc23)c(Br)s1 [SKA-219, 5-Bromo-4-(1-naphthalenyl)thiazol-2-amine]
- block of transport activity [2]: 90%
- inhibition at 10 µM [2]: 90%
- IC50 [2]: ~2 µM
- Active (annotation beside the compound name: active vs inactive derivatives) [2]: SKA-219 Active
- inhibition of spontaneous activity-regulated 14C-MeAIB transport, in words [2]: blocked spontaneous transport activity; also recorded: inhibited spontaneous transport activity
- potency to inhibit activity-regulated MeAIB transport relative to a comparator, in words [2]: as potent as riluzole
- neuroprotection against Glu-induced excitotoxicity in the KA model of TLE [4]: neuroprotective
- less potent to block NaV channels than activity-regulated Gln/MeAIB transport (NaV1.2): > 10 ×
- selectivity to inhibit activity-regulated Gln/MeAIB transport over NaV channels (NaV1.2): > 10 fold and 10 fold and ~15 fold
- IC50 (NaV1.2; N1E-115 cells, n=12, read-out: IC50 to inhibit NaV1.2): 30 µM
- EC50 (NaV1.2; N1E-115 cells, read-out: EC50 concentration to inhibit NaV1.2): ~30 µM
- solubility [3]: 25 µM (≈ 7.63 µg/mL)

Compound: Nc1nc(-c2ccc3ccccc3c2)c(Br)s1 [SKA-220, 5-Bromo-4-(naphthalen-2-yl)thiazol-2-amine]
- inhibition at 10 µM [2]: 90%
- Active (annotation beside the compound name: active vs inactive derivatives) [2]: SKA-220 Active
- inhibition of spontaneous activity-regulated 14C-MeAIB transport, in words [2]: blocked spontaneous transport activity; also recorded: inhibited spontaneous transport activity
- potency to inhibit activity-regulated MeAIB transport relative to a comparator, in words [2]: as potent as riluzole
- melting point: 140 to 141 °C
- solubility [3]: 25 µM (≈ 7.63 µg/mL)

Compound: Nc1nc(-c2ccc(-c3csc(N)n3)cc2)cs1 [SKA-230, 4,4′-(1,4-Phenylene)bis(thiazol-2-amine)]
- melting point: 350 °C
- solubility [3]: 50 µM (≈ 13.7 µg/mL)

Compound: Cc1sc(N)nc1-c1ccc(C)c2ccccc12 [SKA-247, 5-Methyl-4-(4-methylnaphthalen-1-yl)thiazol-2-amine]
- block of transport activity [2]: 90%
- inhibition at 10 µM [2]: 90%
- IC50 [2]: ~2 µM
- Active (annotation beside the compound name: active vs inactive derivatives) [2]: SKA-247 Active
- inhibition of spontaneous activity-regulated 14C-MeAIB transport, in words [2]: blocked spontaneous transport activity; also recorded: inhibited spontaneous transport activity
- solubility [3]: 50 µM (≈ 12.7 µg/mL)

Compound: FC(F)(F)c1cccc(Nc2nc(-c3cccc4ccccc34)cs2)c1 [SKA-251, 4-(Naphthalen-1-yl)-N-(3-(trifluoromethyl)phenyl)thiazol-2-amine]
- melting point: 135 °C
- solubility [3]: 10 µM (≈ 3.7 µg/mL)

Compound: Clc1ccc(Nc2nc(-c3cccc4ccccc34)cs2)cc1Cl [SKA-257, N-(3,4-Dichlorophenyl)-4-(naphthalen-1-yl)thiazol-2-amine]
- melting point: 243 to 244 °C
- solubility [3]: 10 µM (≈ 3.71 µg/mL)

Compound: c1ccc(Nc2nc(-c3cccc4ccccc34)cs2)nc1 [SKA-258, 4-(Naphthalen-1-yl)-N-(pyridin-2-yl)thiazol-2-amine]
- melting point: 225 °C
- solubility [3]: 10 µM (≈ 3.03 µg/mL)

Compound: Cc1ccc(-c2csc(Nc3cccc(C(F)(F)F)c3)n2)cc1 [SKA-260, 4-(p-Tolyl)-N-(3-(trifluoromethyl)phenyl)thiazol-2-amine]
- melting point: 108 °C
- solubility [3]: 10 µM (≈ 3.34 µg/mL)

Compound: FC(F)(F)c1ccc(Nc2nc(-c3ccccc3)cs2)cc1 [SKA-268, 4-Phenyl-N-(4-(trifluoromethyl)phenyl)thiazol-2-amine]
- melting point: 153 °C
- solubility [3]: 10 µM (≈ 3.2 µg/mL)

Compound: Cc1ccc(-c2csc(Nc3ccc(C(F)(F)F)cc3)n2)cc1 [SKA-269, 4-(p-Tolyl)-N-(4-(trifluoromethyl)phenyl)thiazol-2-amine]
- melting point: 155 °C
- solubility [3]: 10 µM (≈ 3.34 µg/mL)

Compound: c1ccc(Nc2nc(-c3ccccc3)cs2)cc1 [SKA-292, N,4-Diphenylthiazol-2-amine]
- melting point: 135 to 137 °C
- solubility [3]: 25 µM (≈ 6.31 µg/mL)

Compound: Nc1nc(-c2cccc3ccccc23)c(Cl)s1 [SKA-378, 5-Chloro-4-(naphthalen-1-yl)thiazol-2-amine]
- potency to inhibit activity-regulated MeAIB transport relative to a comparator, in words [2]: as active as SKA-219 and SKA-220, respectively; also recorded: most potent
- neuronal degeneration by fluoro-jade B staining in hippocampus ([4]; 30 mg/kg 30 min before and 30 min after first KA (5 mg/kg/hr x 2 hr i.p.), 3 days after KA): prevents fluoro-jade B staining in all regions of the hippocampus; also recorded: Neurodegeneration is not observed
- neuroprotection when given after onset of SE ([4]; 30 mg/kg 1 hr after onset of stage IV seizures, at 4 hr post SE, then once daily for 3 days): neuroprotective
- NeuN staining: disorganization and neuron loss in CA3 and hilus ([4]; 30 mg/kg pretreatment, 3 days after KA): prevents the disorganization and cell loss
- neuroprotection against Glu-induced excitotoxicity in the KA model of TLE [4]: neuroprotective

Compound: C[C@H](N)C(=O)O [alanine]
- block of 14C-MeAIB transport activity [1]: ~90%

Compound: NCC(=O)O [glycine]
- block of 14C-MeAIB transport activity [1]: ~90%

Compound: N[C@@H](Cc1c[nH]cn1)C(=O)O [histidine]
- block of 14C-MeAIB transport activity [1]: ~90%

Compound: O=C(O)[C@@H]1CCCN1 [proline]
- block of 14C-MeAIB transport activity [1]: ~90%

Compound: CNCC(=O)O [sarcosine]
- block of 14C-MeAIB transport activity [1]: ~90%
- relative affinity for PMA-induced K+-activity-stimulated Gln/MeAIB transport activity [2]: ~8 µM
